Assay results published in patent US20240368122A1, “JAK2 INHIBITORS AND METHODS OF USE THEREOF” (RELAY THERAPEUTICS, INC., priority 2021, published 2024).

How the values were obtained:
[1] = target: T1, JAK2 JH2 WT (V536-D812) [W659A, W777A, F794H solubilizing mutations] (Homo sapiens, UniProt O60674, F794H/W659A/W777A); assay: Surface Plasmon Resonance (SPR) binding assay, JAK2 JH2 domain
T1 construct: **JAK2 JH2 WT (V536-D812) [W659A, W777A, F794H solubilizing mutations]; C-thrombin-avi-His6; thrombin cleavage site (C); His6 (C); purchased Biortus
Summary of the method: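 Kinetics came from 1:1 fits of single-cycle runs at 20 °C: four 3-fold dilutions from 5 uM for JH1 or 500 nM for JH2, 60 s association, and 300 s or 1200 s dissociation respectively. Protein was freshly captured per compound in the presence of 10 uM stabilizer compound, with running buffer of pH 7.5 HEPES/NaCl/glycerol/DTT plus 2% DMSO.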

[2] = tested on: TF1 JAK2 V617F STAT3 reporter; assay: Cellular TF1 STAT3 assay (luciferase reporter), JAK2 V617F; format: cell-based; conditions: Homo sapiens, TF-1, TF1 cells, JAK2 V617F, read-out: Cell PD-TF1 JAK2 V617F STAT3 (IC50)
Summary of the method: (§1)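 TF1 erythroleukemia cells expressing V617F JAK2 with a STAT3 or STAT5 luciferase reporter were seeded at 10,000 cells/well onto compound (10-point, 1:3 dilutions; 10 mM top stock at 1000×) and incubated 18-20 h at 37 °C, 5% CO2. Luminescence was read after ONE-glo addition, 10 min at room temperature.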

[3] = tested on: TF1 JAK2 V617F STAT5 reporter; assay: Cellular TF1 STAT5 assay (luciferase reporter), JAK2 V617F; format: cell-based; conditions: Homo sapiens, TF-1, TF1 cells, JAK2 V617F, read-out: Cell PD TF1 V617F STAT5 (IC50)
Summary of the method: as §1

T1 sequence (O60674 536-812 W659A/W777A/F794H): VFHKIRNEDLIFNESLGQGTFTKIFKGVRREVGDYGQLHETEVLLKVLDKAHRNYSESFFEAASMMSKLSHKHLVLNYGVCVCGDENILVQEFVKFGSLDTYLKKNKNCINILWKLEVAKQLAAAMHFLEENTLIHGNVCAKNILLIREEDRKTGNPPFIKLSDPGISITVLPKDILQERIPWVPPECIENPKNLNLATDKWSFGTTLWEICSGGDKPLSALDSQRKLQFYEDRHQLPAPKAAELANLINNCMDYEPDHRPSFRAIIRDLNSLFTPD

SMILES | Kd [1] | IC50 [2] | IC50 [3]
CNC(=O)c1nnc(NC(=O)C2CC2)cc1Nc1cccc(-c2ccc(C(=O)N(C)Cc3cc(C#N)cnn3)nc2)c1OC [Compound 332] | 0.01 to 10 nM | 500 to 5000 nM | 500 to 5000 nM
CNC(=O)c1nnc(NC(=O)C2CC2)cc1Nc1cccc(-c2cn(C3CN(C(C)C)C3)nc2CO)c1OC [Compound 335] | 50 to 500 nM | 5000 to 100000 nM | 5000 to 100000 nM
CNC(=O)c1nnc(NC(=O)C2CC2)cc1Nc1cccc(-c2cn(C3CN(C(C)C)C3)nc2C(C)O)c1OC (stereo not drawn) [Compound 336] | 50 to 500 nM | 5000 to 100000 nM | 5000 to 100000 nM
CNC(=O)c1nnc(NC(=O)C2CC2)cc1Nc1cccc(-c2cn(C3CN(Cc4cccc(C#N)n4)C3)nc2C(C)O)c1OC (stereo not drawn) [Compound 337] | 0.01 to 10 nM | 5000 to 100000 nM | 5000 to 100000 nM
CNC(=O)c1nnc(NC(=O)C2CC2)cc1Nc1cccc(-c2cn(C3CN(C(C)C)C3)nc2C(C)(C)O)c1OC [Compound 338] | 50 to 500 nM | 500 to 5000 nM | 5000 to 100000 nM
CNC(=O)c1nnc(NC(=O)C2CC2)cc1Nc1cccc(-c2cn(C3CN(Cc4cccc(C#N)n4)C3)nc2C(C)(C)O)c1OC [Compound 339] | 50 to 500 nM | 5000 to 100000 nM | 5000 to 100000 nM
CNC(=O)c1nnc(NC(=O)C2CC2)cc1Nc1ccc(C)c(-c2cnc(C(=O)N(C)Cc3cc(S(C)(=O)=O)ccn3)c(F)c2)c1OC [Compound 340] | 0.01 to 10 nM | 50 to 500 nM | 50 to 500 nM
CNC(=O)c1nnc(NC(=O)C2CC2)cc1Nc1cccc(-c2cn(C3CN(Cc4cccc(C(F)F)n4)C3)cn2)c1OC [Compound 341] | 0.01 to 10 nM | 50 to 500 nM | 50 to 500 nM
CNC(=O)c1nnc(NC(=O)OC2CC2)cc1Nc1cccc(-c2cnn(C3CN(Cc4ccccn4)C3)c2)c1OC [Compound 342] | 0.01 to 10 nM | 500 to 5000 nM | 500 to 5000 nM
CNC(=O)c1nnc(NC(=O)C2CC2)cc1Nc1cccc(-c2cnn(C3CN(Cc4cccc(C5COC5)n4)C3)c2)c1OC [Compound 343] | 0.01 to 10 nM | 50 to 500 nM | 50 to 500 nM
CNC(=O)c1nnc(NC(=O)C2CC2)cc1Nc1cccc(-c2cnn(C3CN(Cc4cc(C(F)F)cc(C#N)n4)C3)c2)c1OC [Compound 344] | 0.01 to 10 nM | 50 to 500 nM | 50 to 500 nM
CNC(=O)c1nnc(NC(=O)C2CC2)cc1Nc1ccc(C)c(-c2ccc(C(=O)N(C)Cc3cc(S(C)(=O)=O)ccn3)nc2)c1OC [Compound 347] | 0.01 to 10 nM | 50 to 500 nM | 50 to 500 nM
CNC(=O)c1nnc(NC(=O)C2CC2)cc1Nc1cccc(-c2cnn([C@H]3C[C@H](Cc4cccc(C#N)n4)C3)c2)c1OC [Compound 349] | 0.01 to 10 nM | 500 to 5000 nM | 500 to 5000 nM
CNC(=O)c1nnc(NC(=O)C2CC2)cc1Nc1cccc(-c2cnn(C3CN(Cc4cccc(C(C)(C)COC)n4)C3)c2)c1OC [Compound 351] | 0.01 to 10 nM | 500 to 5000 nM | 500 to 5000 nM
CCN(C)C(=O)c1cccc(CN2CC(n3cc(-c4cccc(Nc5cc(NC(=O)C6CC6)nnc5C(=O)NC)c4OC)cn3)C2)n1 [Compound 354] | 0.01 to 10 nM | 50 to 500 nM | 10 to 50 nM
CNC(=O)c1nnc(NC(=O)C2CC2)cc1Nc1cccc(-c2cnn(C3CN(Cc4cccc(C(=O)N5CCC5)n4)C3)c2)c1OC [Compound 355] | 0.01 to 10 nM | 50 to 500 nM | 10 to 50 nM
CNC(=O)c1nnc(NC(=O)C2CC2)cc1Nc1cccc(-c2cnn(C3CN(Cc4cccc(C(=O)N5CCCC5)n4)C3)c2)c1OC [Compound 356] | 0.01 to 10 nM | 10 to 50 nM | 10 to 50 nM
CNC(=O)c1nnc(NC(=O)C2CC2)cc1Nc1cccc(-c2cnn(C3CN(Cc4cccc(C(=O)N5CCC(F)(F)C5)n4)C3)c2)c1OC [Compound 357] | 0.01 to 10 nM | 50 to 500 nM | 10 to 50 nM
CNC(=O)c1nnc(NC(=O)C2CC2)cc1Nc1cccc(-c2cnn(C3CN(Cc4cccc(C(=O)N5CCC(C(F)(F)F)C5)n4)C3)c2)c1OC (stereo not drawn) [Compound 358] | 0.01 to 10 nM | 50 to 500 nM | 50 to 500 nM
CNC(=O)c1nnc(NC(=O)C2CC2)cc1Nc1cccc(-c2ccc(C3CN(Cc4ccccn4)C3)c(OC)c2)c1OC [Compound 359] | 50 to 500 nM | 5000 to 100000 nM | 500 to 5000 nM
CNC(=O)c1nnc(NC(=O)C2CC2)cc1Nc1cccc(-c2ccc(C3CN(Cc4cc(C#N)ccn4)C3)c(OC)c2)c1OC [Compound 360] | 50 to 500 nM | 5000 to 100000 nM | 500 to 5000 nM
CNC(=O)c1nnc(NC(=O)C2CC2)cc1Nc1cccc(-c2ccc(C3CN(Cc4cccc(C#N)n4)C3)c(OC)c2)c1OC [Compound 361] | 50 to 500 nM | 5000 to 100000 nM | 500 to 5000 nM

SMILES | Kd [1] | IC50 [2] | IC50 [3]
CNC(=O)c1nnc(NC(=O)C2CC2)cc1Nc1cccc(-c2ccc(C(=O)N(C)Cc3ncc(COC4CC4)s3)nc2)c1OC [Compound 362] | 0.01 to 10 nM | 500 to 5000 nM | 500 to 5000 nM
COc1c(Nc2cc(NC(=O)C3CC3)nnc2-c2ncc[nH]2)cccc1-c1ccc(C(=O)N(C)Cc2cn(C)nc2C)nc1 [Compound 363] | 0.01 to 10 nM | 500 to 5000 nM | 50 to 500 nM
CNC(=O)c1nnc(NC(=O)OC2CC2)cc1Nc1cccc(-c2cnn(C3CN(Cc4cccc(C#N)n4)C3)c2)c1OC [Compound 364] | 0.01 to 10 nM | 50 to 500 nM | 50 to 500 nM
CNC(=O)c1nnc(NC(=O)C2CC2)cc1Nc1cccc(-c2cnn(C3CN(Cc4ncccc4O)C3)c2)c1OC [Compound 365] | 0.01 to 10 nM | 500 to 5000 nM | 500 to 5000 nM
COc1c(Nc2cc(NC(=O)C3CC3)nnc2-c2ncc[nH]2)cccc1-c1ccc(C(=O)N(C)Cc2cc(C#N)ccn2)nc1 [Compound 366] | 0.01 to 10 nM | 50 to 500 nM | 50 to 500 nM
C=C(C)c1cccc(CN2CC(n3cc(-c4cccc(Nc5cc(NC(=O)C6CC6)nnc5C(=O)NC)c4OC)cn3)C2)n1 [Compound 367] | 0.01 to 10 nM | 50 to 500 nM | 50 to 500 nM
C=Cc1cccc(CN2CC(n3cc(-c4cccc(Nc5cc(NC(=O)C6CC6)nnc5C(=O)NC)c4OC)cn3)C2)n1 [Compound 368] | 0.01 to 10 nM | 50 to 500 nM | 50 to 500 nM
CNC(=O)c1nnc(NC(=O)C2CC2)cc1Nc1cccc(-c2cnn(C3CN(Cc4cccc(C5(C)COC5)n4)C3)c2)c1OC [Compound 369] | 0.01 to 10 nM | 50 to 500 nM | 50 to 500 nM
CNC(=O)c1nnc(NC(=O)C2CC2)cc1Nc1cccc(-c2cnn(C3CC(C(O)c4ccccn4)C3)c2)c1OC (stereo not drawn) [Compound 370] | 0.01 to 10 nM | 500 to 5000 nM | 500 to 5000 nM
COc1c(Nc2cc(NC(=O)C3CC3)nnc2-c2ncc[nH]2)ccc(C)c1-c1ccc(C(=O)N(C)Cc2cc(C#N)ccn2)nc1 [Compound 371] | 0.01 to 10 nM | 50 to 500 nM | 50 to 500 nM
CNC(=O)c1nnc(NC(=O)C2CC2)cc1Nc1cccc(-c2cnn(C3CC(Oc4cccc(C#N)n4)C3)c2)c1OC (stereo not drawn) [Compound 372] | 0.01 to 10 nM | 500 to 5000 nM | 500 to 5000 nM
CNC(=O)c1nnc(NC(=O)C2CC2)cc1Nc1cccc(-c2cnn(C3CN(Cc4cccn5ccnc45)C3)c2)c1OC [Compound 373] | 0.01 to 10 nM | 50 to 500 nM | 50 to 500 nM
CNC(=O)c1nnc(NC(=O)C2CC2)cc1Nc1cccc(-c2cnn(C3CN(Cc4cccc5nccn45)C3)c2)c1OC [Compound 374] | 0.01 to 10 nM | 50 to 500 nM | 50 to 500 nM
COc1c(Nc2cc(NC(=O)C3CC3)nnc2-c2ncc[nH]2)ccc(C)c1-c1ccc(C(=O)N(C)Cc2cn(C)nc2C)nc1 [Compound 376] | 0.01 to 10 nM | 500 to 5000 nM | 500 to 5000 nM
CNC(=O)c1nnc(NC(=O)C2CC2)cc1Nc1cccc(-c2cnn(C3CN(Cc4cccc(C(C)=O)n4)[C@H]3C)c2)c1OC (stereo partly drawn) [Compound 377] | 0.01 to 10 nM | 500 to 5000 nM | 500 to 5000 nM
CNC(=O)c1nnc(NC(=O)C2CC2)cc1Nc1cccc(-c2cnn(C3CN(Cc4cccc(P(C)(C)=O)n4)C3)c2)c1OC [Compound 378] | 0.01 to 10 nM | 500 to 5000 nM | 500 to 5000 nM
CNC(=O)c1nnc(NC(=O)C2CC2)cc1Nc1cccc(-c2ccc(C(=O)N(C)Cc3cc(P(C)(C)=O)ccn3)nc2)c1OC [Compound 380] | 0.01 to 10 nM | 5000 to 100000 nM | 5000 to 100000 nM
CNC(=O)c1nnc(NC(=O)C2CC2)cc1Nc1cccc(-c2cnn(C3CN(Cc4cccc5c(F)cnn45)C3)c2)c1OC [Compound 381] | 0.01 to 10 nM | 50 to 500 nM | 50 to 500 nM
CNC(=O)c1nnc(NC(=O)C2CC2)cc1Nc1cccc(-c2cnn(C3CN(Cc4cccc(C5(O)COC5)n4)C3)c2)c1OC [Compound 382] | 0.01 to 10 nM | 50 to 500 nM | 50 to 500 nM
CNC(=O)c1nnc(NC(=O)C2CC2)cc1Nc1cccc(-c2cnn([C@H]3C[C@@H](N(C)c4ccccn4)C3)c2)c1OC [Compound 383] | 0.01 to 10 nM | 5000 to 100000 nM | 5000 to 100000 nM
CNC(=O)c1nnc(NC(=O)C2CC2)cc1Nc1cccc(-c2cnn(C3CN(Cc4cccc(C(=O)N(C)CCN)n4)C3)c2)c1OC [Compound 384] | 0.01 to 10 nM | 500 to 5000 nM | 500 to 5000 nM
